# Measured values reported in article PMC3076737 (Journal of medicinal chemistry, 2010).
# Assays:
# [1] = target: T1, CB1 receptor (Homo sapiens, UniProt P21554); assay: Competitive displacement binding vs [3H]CP55,940 in hCB1 membranes; conditions: both radioligands
# [2] = target: human CB2 receptor (Homo sapiens, UniProt P34972); assay: Competitive displacement binding vs [3H]CP55,940 in hCB2 membranes; conditions: read-out: Displacement vs. 3H-CP55,940: Ki (nM) in hCB2; Table 2
# [3] = target: T1, CB1 receptor; assay type: cell-based; conditions: data not shown
# [4] = target: T1, CB1 receptor; assay type: binding; conditions: data not shown
# [5] = target: T1, CB1 receptor; assay: GTP-γ-S assay of compounds 3 and 4, preparation not stated, data not shown; assay type: biochemical
# Chain of human CB2 receptor (P34972 whole entry): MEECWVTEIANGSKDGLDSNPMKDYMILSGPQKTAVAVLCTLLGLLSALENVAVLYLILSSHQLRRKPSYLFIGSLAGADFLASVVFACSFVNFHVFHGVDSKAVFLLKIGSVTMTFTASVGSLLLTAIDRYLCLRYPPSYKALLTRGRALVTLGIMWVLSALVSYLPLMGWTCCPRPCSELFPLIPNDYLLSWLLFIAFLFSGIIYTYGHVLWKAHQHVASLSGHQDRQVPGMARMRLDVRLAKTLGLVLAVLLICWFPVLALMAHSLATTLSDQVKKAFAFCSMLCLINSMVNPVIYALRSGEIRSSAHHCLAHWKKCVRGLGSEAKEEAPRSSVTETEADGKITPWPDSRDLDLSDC
# T1 sequence (P21554 whole entry): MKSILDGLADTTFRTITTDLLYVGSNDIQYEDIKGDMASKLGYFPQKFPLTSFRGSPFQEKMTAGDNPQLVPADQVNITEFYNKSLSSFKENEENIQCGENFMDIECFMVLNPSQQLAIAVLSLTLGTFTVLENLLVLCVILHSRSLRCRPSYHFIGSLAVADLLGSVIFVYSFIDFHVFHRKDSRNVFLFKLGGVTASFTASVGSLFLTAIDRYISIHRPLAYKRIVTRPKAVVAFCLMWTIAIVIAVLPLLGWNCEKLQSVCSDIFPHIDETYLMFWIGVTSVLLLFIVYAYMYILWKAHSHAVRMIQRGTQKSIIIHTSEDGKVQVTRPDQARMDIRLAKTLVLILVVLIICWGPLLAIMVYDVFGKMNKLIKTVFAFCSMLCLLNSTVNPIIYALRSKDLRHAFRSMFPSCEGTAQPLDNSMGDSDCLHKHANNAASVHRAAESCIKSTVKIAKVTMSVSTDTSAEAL
Ki [2] [nM],Activity in calcium assay [3],Affinity in radiolabeled binding [4],Activity in GTP-γ-S assay [5],Compound,also measured
,,,,"Cc1c(C(=O)NCCCCCCCNCCCCCCCNC(=O)c2nn(-c3ccc(Cl)cc3Cl)c(-c3ccc(Cl)cc3)c2C)nn(-c2ccc(Cl)cc2Cl)c1-c1ccc(Cl)cc1 [Compound 5d, N,N′-(iminodiheptane-7,1-diyl)bis[5-(4-chlorophenyl)-1-(2,4-dichlorophenyl)-4-methyl-1H-pyrazole-3-carboxamide]]",Affinity higher than the corresponding monovalent control (7d) [1]: ~4 fold
> 2500,,,,"Cc1c(C(=O)NCCCCCN(C)CCCCCN)nn(-c2ccc(Cl)cc2Cl)c1-c1ccc(Cl)cc1 [Compound 8a, N-{5-[(5-aminopentyl)(methyl)amino]pentyl}-5-(4-chlorophenyl)-1-(2,4-dichlorophenyl)-4-methyl-1H-pyrazole-3-carboxamide]",
> 2500,,,,"Cc1c(C(=O)NCCCCCCCCCN(C)CCCCCCCCCNC(=O)c2nn(-c3ccc(Cl)cc3Cl)c(-c3ccc(Cl)cc3)c2C)nn(-c2ccc(Cl)cc2Cl)c1-c1ccc(Cl)cc1 [Compound 6c, N,N′-[(methylimino)dinonane-9,1-diyl]bis[5-(4-chlorophenyl)-1-(2,4-dichlorophenyl)-4-methyl-1H-pyrazole-3-carboxamide]]",
,inactive,low affinity,inactive,"Cc1c(C(=O)NCCOCCOCCOCCNC(=O)c2nn(-c3ccc(Cl)cc3Cl)c(-c3ccc(Cl)cc3)c2C)nn(-c2ccc(Cl)cc2Cl)c1-c1ccc(Cl)cc1 [Compound 3, 5-(4-chlorophenyl)-N-{13-[5-(4-chlorophenyl)-1-(2,4-dichlorophenyl)-4-methyl-1H-pyrazol-3-yl]-13-oxo-3,6,9-trioxa-12-azatridec-1-yl}-1-(2,4-dichlorophenyl)-4-methyl-1H-pyrazole-3-carboxamide]",
,inactive,low affinity,inactive,"Cc1c(C(=O)NCC(=O)NCC(=O)NCCN)nn(-c2ccc(Cl)cc2Cl)c1-c1ccc(Cl)cc1 [Compound 4, N-{[5-(4-chlorophenyl)-1-(2,4-dichlorophenyl)-4-methyl-1H-pyrazol-3-yl]carbonyl}glycyl-N-(2-aminoethyl)glycinamide]",
> 2500,,,,"Cc1c(C(=O)NCCCCCCCCCCCN(C)CCCCCCCCCCCNC(=O)c2nn(-c3ccc(Cl)cc3Cl)c(-c3ccc(Cl)cc3)c2C)nn(-c2ccc(Cl)cc2Cl)c1-c1ccc(Cl)cc1 [Compound 6d, N,N′-[(methylimino)diundecane-11,1-diyl]bis[5-(4-chlorophenyl)-1-(2,4-dichlorophenyl)-4-methyl-1H-pyrazole-3-carboxamide]]",
